The source made the active and inactive calls.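 How the source made its calls: active means signal falls with dose and the fitted half-maximal concentration is at or below twice the top valid tested dose; inconclusive means flat curve with 30 to 70% inhibition, or poor fit; inactive means wrong direction, flat within 30%, or potency beyond limit.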
molecular target: Golgi-associated PDZ and coiled-coil motif-containing protein (Homo sapiens) (UniProt Q9HD26); experiment: blockers of CAL PDZ ligand groove binding – biochemical, fluorescence polarization, untagged CAL PDZ, cherry-pick, dose response (AID 602267); settings: purified CAL PDZ, TMR-peptide fluorescence polarization, 1 h;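 on activity change, negative = inhibition: 0% = DMSO neutral wells and -100% = excess unlabeled competitor peptide wells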

Row | Structure (SMILES) | AC50 [µM]
1 | COc1ccc2noc3c2c1C(=O)c1ccccc1-3 | 1.78

same assay, conditions: purified CAL PDZ, TMR-peptide fluorescence polarization, 1 h; at 16 µM (top of the series)

Row | Structure (SMILES) | activity change, negative = inhibition
2 | c1ccc(C2Nc3ccccc3Oc3ccccc32)cc1 (centres undefined) | inactive
3 | O=C(OCC(=O)N1CCOCC1)c1ccc[nH]c1=O | inactive

same assay, conditions: purified CAL PDZ, TMR-peptide fluorescence polarization, 1 h; at 50 µM (top of the series)

Row | Structure (SMILES) | activity change, negative = inhibition
4 | CCN(CC)CCC(=O)N1c2ccccc2CCc2ccc(NC(=O)OC(C)C)cc21 | inactive
5 | CC(C)Oc1ccc(C(=O)Nc2ccc(S(=O)(=O)N3CCN(C)CC3)cc2)cc1 | inactive
6 | O=C(NCC(=O)N1CCC(N2CCCCC2)CC1)C1CCCCC1 | inactive
7 | CC1=C(C#N)C(=O)NC(=O)/C1=C\c1ccc(-c2cc(C)c(C)cc2[N+](=O)[O-])o1 | inactive
8 | O=C(COC(=O)c1ccccc1C(=O)N1CCN(c2ccccc2)CC1)NCc1ccccc1 | inactive
9 | COC(=O)CN1C(=O)C(O)=C(C(C)=O)C1c1ccc([N+](=O)[O-])cc1 (centres undefined) | inactive
10 | COc1ccc(C(=O)c2ccc(C)cc2)c(OC)c1OC | inactive
11 | CN(C)c1ccc(P(=O)(OC2CCCCC2)C(O)c2cccnc2)cc1 (centres undefined) | inactive
12 | COc1ccc(CN(C)C(C)C(=O)NC2CCCc3ccccc32)cc1 (centres undefined) | inactive
13 | c1ccc(C(c2ccccc2)c2cccnc2)cc1 | inactive
14 | CC(=O)N1CCN(c2ccc(NC(=O)C(c3ccccc3)c3ccccc3)cc2)CC1 | inactive
15 | COCCCNC(=O)c1cc(S(=O)(=O)N2CCOCC2)ccc1SCc1cccc(OC)c1OC | inactive
16 | O=C(Nc1cccc(F)c1)c1ccco1 | inactive
17 | O=C(NCc1ccccn1)Nc1ccc(F)c(Cl)c1 | inactive
18 | NS(=O)(=O)c1ccc(N2N=C(c3ccccc3)CC2c2ccccc2)cc1 (centres undefined) | inactive
19 | Oc1ccc(/C=N\Nc2nncc(-c3ccccc3)n2)cc1 | inactive

Row | Structure (SMILES) | activity change, negative = inhibition
20 | Cc1cc(SC2CCOC2=O)nc2ccccc12 (centres undefined) | inactive
21 | CSc1ccccc1NC(=O)c1ccccc1 | inactive
22 | Cc1ccc(CN2CCN(Cc3nc4ccccc4nc3C)CC2CCO)cc1 (centres undefined) | inactive
23 | CCN1C(=O)CS/C1=N\S(=O)(=O)c1ccc(Cl)cc1 | inactive
24 | COc1cc(N(C)C)ccc1C=c1c2ccccc2n2c1cc(-c1ccccc1)[n+]2C | inactive
25 | CC12CCC(C(=O)N(CCCN3CCN(Cc4ccccc4)CC3)C1=O)C2(C)C (centres undefined) | inactive
26 | O=C(NCc1ccccc1Cl)C1CC(=O)N(Cc2ccccc2)C1 (centres undefined) | inactive
27 | COc1ccc(C(=O)Nc2nccs2)cc1 | inactive
28 | O=C1c2ccccc2C(=O)N1CSc1nnnn1-c1ccccc1 | inactive
29 | CCc1nc(SCC(=O)c2ccccc2)c2c(=O)n(C)c(=O)n(C)c2n1 | inactive
30 | CC(C)(C)c1nn(-c2ccccc2)c2[nH]c(=O)c(C=O)cc12 | inactive
31 | COc1cc(Cl)c(CN2CCCC(CO)(Cc3cccc(Cl)c3)C2)cc1OC (centres undefined) | inactive
32 | O=C(NNC(=O)c1ccc(Cl)c(Cl)c1)c1cccnc1 | inactive
33 | Cc1cccc(C(=O)Nc2ccc(C(=O)/C=C/c3ccncc3)cc2)c1 | inactive
34 | O=[N+]([O-])c1ccc(N/N=C/c2cccnc2)cc1 | inactive
